Some test systems named below: SNB-75 CNS; SW-620 colon; SF-268 CNS; NCI-H226 lung; SK-MEL-28 melanoma; T-47D breast; K-562 leukemia; OVCAR-8 ovarian; OVCAR-4 ovarian; MDA-MB-231 breast.
What all share (assay): inhibition of tumour cell growth, NCI panel, 48 h

Structures are written as SMILES. “And” between values parts separate entries of the source, which are not always exact repeats. Identical values can stand only once.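 Protocol summary: plate cells (96-well), add compound at 5 concentrations, incubate 48 h, interpolate endpoints linearly. GI50 is the concentration that inhibits growth by half. TGI is the concentration that stops growth completely.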

Regarding `CCc1ccc2c(c1)C(=O)c1c-2n(CCCN=[N+]=[N-])c(=O)c2cc(OC)c(OC)cc12`, the GI50 in the assay on SNB-75 CNS is > 100 µM; in the assay with SW-620 colon, > 100 µM; in the assay with SF-268 CNS, 60.7 µM; in the assay with NCI-H226 lung it was > 100 µM; with SK-MEL-28 melanoma, > 100 µM; in the assay on T-47D breast it was > 100 µM. Besides, the GI50 in the assay on K-562 leukemia, with OVCAR-8 ovarian, in the assay on OVCAR-4 ovarian and with MDA-MB-231 breast was > 100 µM each time. In addition, the TGI in the assay with SNB-75 CNS, in the assay on SW-620 colon, in the assay with SF-268 CNS, in the assay with NCI-H226 lung, in the assay on SK-MEL-28 melanoma and in the assay on T-47D breast was > 100 µM in each case. The TGI with K-562 leukemia, in the assay with OVCAR-8 ovarian, with OVCAR-4 ovarian and in the assay with MDA-MB-231 breast was > 100 µM each time.

For the compound `O=C1C(SCCO)=C(SCCO)C(=O)N1c1ccc(-c2ccccc2)cc1`, the GI50 in the assay on SNB-75 CNS is 4.1 µM; with SW-620 colon it was 1.45 µM; in the assay on SF-268 CNS it was 3.1 µM; in the assay on NCI-H226 lung, 23.1 µM; with SK-MEL-28 melanoma, 2.41 µM; in the assay with T-47D breast, 1.71 µM. In addition, the GI50 in the assay on K-562 leukemia was > 50 µM; in the assay on OVCAR-8 ovarian it was 2 µM; in the assay on OVCAR-4 ovarian, 0.932 µM; in the assay on MDA-MB-231 breast it was 13.3 µM. For the same compound, the TGI in the assay with SNB-75 CNS is 11.1 µM; in the assay on SW-620 colon, 3.94 µM; in the assay with SF-268 CNS, 7.65 µM; in the assay on NCI-H226 lung, > 53.4 µM; in the assay on SK-MEL-28 melanoma, 6.65 µM; in the assay with T-47D breast it was 7.43 µM. The TGI in the assay with K-562 leukemia is > 100 µM; with OVCAR-8 ovarian, 5.82 µM; in the assay with OVCAR-4 ovarian, 3.1 µM; in the assay with MDA-MB-231 breast, 32.7 µM.

Regarding `OCCn1cnc2c(SCc3ccccc3)ncnc21`, the TGI in the assay with SNB-75 CNS, in the assay on SW-620 colon, in the assay with SF-268 CNS, in the assay with NCI-H226 lung, in the assay with SK-MEL-28 melanoma and with T-47D breast was > 100 µM in each case. In addition, the TGI in the assay with K-562 leukemia, in the assay on OVCAR-8 ovarian, in the assay on OVCAR-4 ovarian and in the assay on MDA-MB-231 breast was > 100 µM throughout.

As for `CN(C)c1ccc(C(=NO)c2ccc(N(C)C)cc2)cc1`, the GI50 is 3.33 µM in the assay with SNB-75 CNS; 0.729 µM in the assay on SW-620 colon; 4.71 µM in the assay with SF-268 CNS; 9.43 µM with NCI-H226 lung; 5.3 µM in the assay on SK-MEL-28 melanoma; 5.59 µM in the assay with T-47D breast. Moreover, the GI50 with K-562 leukemia was 0.418 µM; in the assay on OVCAR-8 ovarian it was 3.9 µM; with OVCAR-4 ovarian, 89 µM; with MDA-MB-231 breast, 4.85 µM. Also, the TGI in the assay on SNB-75 CNS was 53.2 µM; in the assay with SW-620 colon it was > 100 µM; in the assay with SF-268 CNS, > 100 µM; with NCI-H226 lung it was > 100 µM; in the assay with SK-MEL-28 melanoma it was > 100 µM; in the assay on T-47D breast, > 100 µM. The TGI in the assay on K-562 leukemia, with OVCAR-8 ovarian, in the assay with OVCAR-4 ovarian and in the assay on MDA-MB-231 breast was > 100 µM in each case.

In the case of `O1[As]2O[As]3O[As]1O[As](O2)O3`, the GI50 with SNB-75 CNS was 0.389 µM; in the assay on SW-620 colon, 0.577 µM; in the assay on SF-268 CNS it was 0.456 µM; in the assay with NCI-H226 lung it was 1.01 µM; in the assay on SK-MEL-28 melanoma, 1.02 µM; in the assay with T-47D breast it was 0.474 µM. The GI50 in the assay on K-562 leukemia was 0.317 µM; with OVCAR-8 ovarian, 1.89 µM; with OVCAR-4 ovarian, 1.06 µM; in the assay on MDA-MB-231 breast, 0.648 µM. The TGI in the assay with SNB-75 CNS amounted to 3.34 µM; with SW-620 colon it was 4.54 µM; in the assay on SF-268 CNS it was 1.86 µM; with NCI-H226 lung it was 4.64 µM; in the assay with SK-MEL-28 melanoma, 2.45 µM; with T-47D breast, 12.6 µM. The TGI in the assay with K-562 leukemia was 2.99 µM; in the assay on OVCAR-8 ovarian, 13.6 µM; with OVCAR-4 ovarian it was 11.9 µM; with MDA-MB-231 breast it was 2.96 µM.

Take `Cc1ccc(-c2nc3nc(-c4ccccc4)nc(N4CCNCC4)c3o2)cc1`: the GI50 in the assay with SNB-75 CNS was 1.58 µM; with SW-620 colon it was 0.23 µM; in the assay on SF-268 CNS, 1.75 µM; with NCI-H226 lung it was 1.79 µM; with SK-MEL-28 melanoma it was 1.89 µM; with T-47D breast, 0.832 µM. Moreover, the GI50 is 0.235 µM in the assay with K-562 leukemia, 0.366 µM in the assay on OVCAR-8 ovarian, 0.435 µM in the assay on OVCAR-4 ovarian and 0.226 µM in the assay on MDA-MB-231 breast. Moreover, the TGI in the assay with SNB-75 CNS was determined as 3.02 µM; with SW-620 colon, 0.54 µM; in the assay with SF-268 CNS, 4.02 µM; with NCI-H226 lung it was 3.79 µM; in the assay with SK-MEL-28 melanoma, 3.43 µM; with T-47D breast, 2.6 µM. In addition, the TGI was found to be 0.521 µM in the assay with K-562 leukemia, 1.19 µM in the assay with OVCAR-8 ovarian, 1.6 µM in the assay with OVCAR-4 ovarian and 0.537 µM with MDA-MB-231 breast.

On to `NC(=O)Nc1cc(-c2cccc(F)c2)sc1C(=O)N[C@H]1CCCNC1`, for which the GI50 was 0.0316 µM and 0.102 µM with SNB-75 CNS; 0.284 µM and 0.423 µM in the assay with SW-620 colon; 0.327 µM and 0.458 µM in the assay on SF-268 CNS; 1.09 µM and 0.57 µM with NCI-H226 lung; 2.95 µM and 3.53 µM in the assay with SK-MEL-28 melanoma; 1.07 µM and 2.71 µM in the assay on T-47D breast. Besides, the GI50 in the assay on K-562 leukemia was 0.0949 µM and 0.254 µM; with OVCAR-8 ovarian, 0.131 µM and 0.318 µM; with OVCAR-4 ovarian it was 0.222 µM and 0.31 µM; in the assay with MDA-MB-231 breast it was 0.305 µM and 0.424 µM. In addition, the TGI with SNB-75 CNS is 1.01 µM and 1.07 µM; in the assay on SW-620 colon, > 5.03 µM and 3.36 µM; in the assay with SF-268 CNS, 3.35 µM and 4.14 µM; with NCI-H226 lung, 8.69 µM and 2.9 µM; in the assay on SK-MEL-28 melanoma it was > 10 µM and 16.9 µM; in the assay on T-47D breast, > 10 µM and 18.8 µM. In addition, the TGI in the assay on K-562 leukemia is > 10 µM and 10.5 µM; with OVCAR-8 ovarian it was > 3.36 µM and 2.04 µM; with OVCAR-4 ovarian it was > 10 µM and 17.3 µM; in the assay with MDA-MB-231 breast, 2.82 µM and 2.33 µM.

For the compound `CN(C)CC1CCC2=C(C1=O)C(c1ccc(Cl)c(Cl)c1)C1=C(CCC(CN(C)C)C1=O)O2` (stereo not given), the GI50 in the assay on SNB-75 CNS was 12.4 µM; in the assay on SW-620 colon it was 2.47 µM; in the assay with SF-268 CNS, 15.6 µM; with NCI-H226 lung it was 15.3 µM; with SK-MEL-28 melanoma, 17.6 µM; in the assay on T-47D breast it was 2.05 µM. Moreover, the GI50 was 2.46 µM with K-562 leukemia, 4.25 µM in the assay with OVCAR-8 ovarian, 15.4 µM in the assay with OVCAR-4 ovarian and 15.4 µM with MDA-MB-231 breast. The TGI with SNB-75 CNS was 25.8 µM; in the assay with SW-620 colon it was 16.9 µM; in the assay with SF-268 CNS it was 29.5 µM; with NCI-H226 lung it was 31.2 µM; in the assay with SK-MEL-28 melanoma, 34.6 µM; with T-47D breast, 7.9 µM. The TGI with K-562 leukemia was found to be 6.34 µM; in the assay with OVCAR-8 ovarian, 16 µM; in the assay with OVCAR-4 ovarian, 29.9 µM; in the assay on MDA-MB-231 breast, 28.7 µM.

These data come from PubChem BioAssay (NCI).
